Measured values taken from patent US20260231944A1, “ANTISEPTIC CONDITIONING FORMULATIONS” (THOMMES MEDICAL AG, priority 2023, published 2026).
One block for each compound: values may come before it.

Key:
[1] = system: Human periodontal ligament fibroblasts (HPDLF); assay: cell viability of human primary cells after antiseptics in T. buffer, AlamarBlue assay; assay type: cell-based
Procedure: Human periodontal ligament fibroblasts (HPDLF) were used in this study as test system, imitating closer the in vivo situation. The fibroblasts were purchased from ATCC and cultured in ScienCell FM medium, supplemented with 2% fetal bovine serum, 1% fibroblast growth factor and 1% penicillin-streptomycin (Sigma-Aldrich, Switzerland) in T75 flasks at 37° C. and 5% CO2.
To study the effect of antiseptic substances, at concentrations that are currently used in marketed products, the vitality of HPDLF cells was assessed. […] As a control, cells were incubated with T. buffer without antiseptic agent. Three replicate wells per concentration were tested. After 1 minute of incubation at 37°, the supernatant was removed and the wells were washed once with 600 μl of the fresh medium. Thereafter, cells were incubated with 600 µL of the fresh medium containing 0.015 mg/ml AlamarBlue dye, for 4 hours at 37° C. Finally, 100 μL of the medium were removed from each well and transferred to a new 96-well plate and the absorbance was measured using a BioTek microplate reader (test wavelength: 570 nm; reference wavelength: 630 nm).
After the incubation with the antiseptic agents, the metabolic activity was measured using an AlamarBlue assay (after 4 h).

[2] = precipitation test of PHMB and CHX in alkaline buffers (visual inspection/visible clouding); assay type: physicochemical
[3] = system: L929 murine fibroblasts
Procedure: Mouse fibroblasts (L929 cell line) were used in this study as recommended cell line for cytotoxicity testing in accordance with EN ISO 10993-5.
The fibroblasts were purchased from ATCC and cultured in Dulbecco's Modified Eagle Medium-high glucose, supplemented with 10% fetal bovine serum and 1% penicillin-streptomycin (Sigma-Aldrich, Switzerland) in T75 flasks at 37° C. and 5% CO2. For the performance of the cytotoxicity experiments, L929 cells were seeded onto 96-well cell culture plates, 100 μ/well, at a density of 1×10^6 cells/mL to reach about 80% confluence after 24 hours.
After 60 minutes of incubation at 37°, the medium was removed and the wells were washed once with 100 μl of the fresh medium.
Thereafter, cells were incubated with 100 μL of the fresh medium containing 0.015 mg/ml AlamarBlue dye, for 2 hours at 37° C.
Finally, 100 μL of the media were removed from each well and transferred to a new 96-well plate and the absorbance was measured using a BioTek microplate reader (test wavelength: 570 nm; reference wavelength: 630 nm).
In order to test the cytocompatibility of alkaline buffers, a similar experiment was performed. However, the alkaline buffers were incubated for 10 minutes instead of 60 minutes. […]
After the incubation time, the metabolic activity, used as an indirect marker for cytotoxicity, was measured with an AlamarBlue assay. […]

precipitation ([2]; CHX 0.06% in 0.05 M NaOH/0.05 M glycine, pH 11.06): precipitation occurs
precipitation ([2]; CHX 0.06% in 0.05 M NaOH/0.1 M glycine, pH 9.9): no precipitation
SMILES: [H]/N=C(\N/C(=N/[H])NCCCCCCNC(=N)NC(=N)Nc1ccc(Cl)cc1)Nc1ccc(Cl)cc1 [CHX, 1,6-bis(4-chloro-phenylbiguanido)hexane]
cell viability ([1]; CHX 0.06 and 0.12% in T. buffer, 1 minute): Low cell viability

SMILES: C[S+](C)[O-] [DMSO]
cell viability ([1]; 5% DMSO (negative control)): low cell viability

SMILES: [Na+].[OH-] [sodium hydroxide]
metabolic activity (AlamarBlue) [3]: significant reduction in metabolic activity
